# Assay results as given in patent US20070276024A1, “Methods for Treating Diseases and Conditions with Inverse Agonists and for Screening for Agents Acting as Inverse Agonists” (Inverseon , Inc., priority 2003, published 2007).
# “Also recorded” adds a separate entry of the source. Where two headings read alike, the source gives them in different places.
# Columns and labels:
# β2-adrenergic receptor [1] = molecular target: T1, β2-adrenergic receptor (Mus musculus, UniProt P18762); test: Immunohistochemistry of β2-adrenergic receptor levels in lungs; format: in vivo, mice; design: from tissue; host or cells: fixed lung sections of mice; conditions: chronic treatment, versus untreated animals
# T1 sequence (P18762 whole entry): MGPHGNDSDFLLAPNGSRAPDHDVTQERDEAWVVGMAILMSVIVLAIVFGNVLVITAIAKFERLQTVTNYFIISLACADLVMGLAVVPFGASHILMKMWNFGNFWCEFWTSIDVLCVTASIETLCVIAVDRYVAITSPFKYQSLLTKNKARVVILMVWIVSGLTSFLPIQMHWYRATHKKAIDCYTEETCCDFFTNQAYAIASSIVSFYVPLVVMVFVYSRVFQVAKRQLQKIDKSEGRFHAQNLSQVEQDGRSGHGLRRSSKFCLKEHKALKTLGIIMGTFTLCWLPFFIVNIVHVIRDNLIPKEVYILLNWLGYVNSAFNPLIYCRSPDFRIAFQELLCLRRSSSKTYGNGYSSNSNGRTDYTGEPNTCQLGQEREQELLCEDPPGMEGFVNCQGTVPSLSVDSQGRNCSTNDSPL
# Protocol: The mice were sacrificed and the lungs excised. Then the lungs were fixed in 4% paraformaldehyde (45 min, 0° C.). After fixation, lungs were washed in PBS (60 min) and placed in increasing concentrations of sucrose (10% sucrose/5% glycine in PBS for 30 min; 20% sucrose/10% glycine in PBS for 30 min; 30% sucrose/25% glycine in PBS for 12 h at 4° C.). Lungs were embedded in OCT and 12-μm sections cut with a Tissue-Tek II cryostat. The sections were air dried and fixed with 4% paraformaldehyde for 15 min. After 3 washes in PBS, the slides were blocked with 5% milk in PBS for 1 h, and then incubated overnight with anti-β2-adrenergic receptor antibody (1:200, Santa Cruz Biotechnology) in blocking solution. Slides were washed in PBS and incubated with secondary antibody (1:200, Cy3 goat anti-rabbit, 16 h at 4° C.). […] After washing with PBS, coverslips were mounted and viewed by epifluorescent microscopy.
# asthmatic mice [2] = conditions: Callaerts-Vegh et al. 2004, cited from earlier work
# asthmatic mice [3] = test: Airway resistance (Raw) response to methacholine in murine model of asthma; format: in vivo, Balb/cJ mice
# Protocol: Balb/cJ mice aged 6 weeks (Jackson Animal Laboratory, Bar Harbor, Maine) were housed under specific pathogen-free conditions and fed a chicken ovalbumin-free diet. The Animal Research Ethics Boards of both the University of Houston and the Baylor College of Medicine approved all experiments reported here. […] Mice were sensitized with subcutaneous injection of 25 μg of ovalbumin adsorbed to aluminum hydroxide on protocol days 2, 9, and 16. Subsequently, mice were given 50 μL of saline solution containing 25 μg of ovalbumin intranasally, on a daily basis, from protocol days 23 through 27. A group of ovalbumin-sensitized saline-challenged mice serves as controls for systemic sensitization and respiratory challenges with ovalbumin. Prior to intranasal administrations, mice were sedated with halothane vapor.
# To examine the effects of duration of β-adrenergic ligand therapy on the phenotype of the murine model of asthma, the experimental drugs were administered either acutely or chronically to different groups of asthmatic mice.
# Asthmatic mice on acute therapy were given a single intravenous bolus infusion of either β-adrenergic drug or normal saline on protocol day 28, 15 minutes before airway responsiveness to methacholine was determined. […] […] […] These concentrations were chosen based on those producing therapeutic effects in mice in previously published studies. The non-asthmatic mice were fed normal chow.
# On protocol day 28, mice were anesthetized, tracheotomized, and connected to a computer-controlled small animal ventilator (Flexivent, Scientific Respiratory Equipment, Inc., Montreal, Canada). Airway resistance (Raw) was measured using the forced oscillation technique. The cellular composition of bronchoalveolar lavage fluid (BALF) was also determined.
# To induce airway constriction, a solution containing 150 μg/mL of acetyl-α-methylcholine chloride (methacholine) (Sigma Chemical, St. Louis, Mo.) was infused intravenously at constant rates using a syringe infusion pump (Raze Scientific Instruments, Stanford, Conn.). […] Each methacholine dose was administered for 3 to 5 minutes, during which data were sampled at 1-minute intervals and then averaged.
# The complex input impedance of the respiratory system was computed and the value of the real part of respiratory system impedance at 19.75 Hz was taken to reflect the magnitude of airway resistance (Raw). To examine the degree of airway responsiveness of each animal, the values for Raw as a function of methacholine doses were plotted. The largest value for Raw achieved in response to methacholine stimulation was referred to as Rawpeak. For mice that achieved a plateau in the methacholine dose-Raw response curve, the ED50 was calculated by linear interpolation using the GraphPad Prism4 (GraphPad Software, Inc.). […] The Bonferroni test was used to examine the statistical differences between experimental groups. The effects of acute drug treatments on baseline respiratory system mechanics were assessed using a two-tailed paired t-test. A value of P<0.05 was considered significant.
# For these experiments, salbutamol was used for chronic administration at 0.5 mg/kg/day with a minipump and for acute administration at 0.15 mg/kg by i.v. bolus 15 minutes prior to challenge. Alprenolol was used at a high dose of 7200 ppm in chow or at a low dose of 720 ppm in chow. Carvedilol was used at a high dose of 2400 ppm in chow or at a low dose of 720 ppm in chow.
# The airway resistance (Raw) is plotted as cm H2O ml^−1 s.
# [4] = test system: sensitized and allergen-challenged mice; test: Aminophylline on acute airway effects of nadolol; format: in vivo
# Protocol: Mice were sensitized to the allergen ovalbumin as described in Example 1.
# At time point 1 (time=−10 min) baseline airway resistance of the mice was determined. At time point 2 (time=−5 min) methacholine was infused into mice to reach their EC70.
# Phospholipase C (PLC-β1) = test: Ratio of phospholipase C to actin in cultured tracheal smooth muscle cells (immunoblot); format: cell-based; conditions: cells from asthmatic mice, chronic high dose treatment
# From the text: Cultured tracheal smooth muscle cells were obtained from mice exposed to the following treatments: NS/NC=nonasthmatic, non-challenged mice; S/C=asthmatic mice; Sal.Ac=asthmatic mice, acute salbutamol treatment; Sal.Ch=asthmatic mice, chronic salbutamol treatment; Nad.Ac=asthmatic mice, acute nadolol high dose treatment; and Nad.Ch=asthmatic mice, chronic nadolol high dose treatment.
# After airway function experiments, the trachea were surgically removed from anesthetized mice that had been treated with drugs or vehicle. The trachea was minced and the cells plated and grown in culture. The smooth muscle cells grow faster and take over the culture dish. The cells were grown in medium which contained the drugs used in the treatment or vehicle controls. Phospholipase C (PLC-β1) was determined by immunoblotting with an antibody specific for the enzyme. Actin was used as a loading control and the amount of PLC-β1 was expressed as a ratio to actin.
# The phospholipase C protein level was measured in these cultured cells and compared with the level of the structural protein actin as a baseline. The enzyme phospholipase C plays a key role in the pathway leading to asthmatic symptoms, as it cleaves a phosphodiester bond in membrane phospholipids, resulting in the formation of a 1,2-diglyceride. […]
# β2-adrenergic receptor [5] = molecular target: T1, β2-adrenergic receptor; format: in vivo, mice; conditions: for increase of the level of β2-adrenergic receptors over the non-treated mice: chronic administration; for Bmax (receptor density) / βmax (receptor density): lung membranes, mean±SEM, n=3-5; for Bmax (receptor density): drug treatment 15 Minutes; for βmax (receptor density): drug treatment 28 Days
# Protocol: β2-adrenergic receptor numbers were measured in asthmatic mice as follows. […] Mice were sacrificed and lung membranes were isolated as follows. Frozen lung tissue was homogenized in an ice-cold buffer containing 0.32 M sucrose and 25 mM Tris (pH 7.4) using a polytron (Pro 200, Pro Scientific, Inc.). The homogenate was centrifuged at 1000×g for 10 min at 4° C. The resulting supernatant was centrifuged at 40,000×g for 20 min at 4° C. The pellet was suspended in an ice-cold 25 mM Tris-HCl buffer (pH 7.4) and centrifuged at 40,000'g for 20 min at 4° C. The final pellet was suspended in 200 μL of 25 mM Tris-HCl (pH 7.4); membrane protein concentration was determined by BCA protein assay kit. […] The incubation was done at 37° C. for 2 h and terminated by rapid vacuum filtration through glass fiber filters. The filters were washed three times with 250 μL of cold wash buffer (25 mM Tris-HCl, pH 7.4) and the radioactivity determined in a counter. […] Receptor densities are expressed as femtomoles of sites per milligram of protein. Bmax is determined by nonlinear regression of the saturation binding curves.
# patients with CHF = conditions: cited from earlier work
# asthmatic mice [6] = test: Combination of carvedilol and salbutamol on airway hyperresponsiveness; format: in vivo, Balb/cJ mice; conditions: at the highest dose of methacholine; 28 days treatment
# Protocol: Mice (Balb/cJ) aged 6 weeks were housed under specific pathogen-free conditions and fed a chicken ovalbumin-free diet. Mice were systemically sensitized with ovalbumin adsorbed to aluminum hydroxide. Mice were treated as follows: CAR/SAL 28D=for 28 days mice (n=6-12) were administered carvedilol (2400 ppm in animal chow) and salbutamol (subcutaneous delivery of 0.5 mg/kg/day in an Alzet #2400 osmotic minipump); NTX S/C=mice (n=6-12) no drug treatment for 28 days; CTRL=mice (n=6-12) no drug treatment for 28 days, not subsequently challenged; CARHD 28D=for 28 days mice (n=6-12) were administered carvedilol only (2400 ppm in animal chow); CARHD 28D SAL AC=for 28 days mice (n=6-12) were administered carvedilol (2400 ppm in animal chow) and 15 minutes prior to measuring airway hyperresponsiveness, salbutamol was administered at a dose of 1.2 mg.kg.
# To measure airway hyperresponsiveness after 28 days, all mice except the CTRL (control) mice were challenged with ovalbumin and then all mice were anesthetized, tracheotomized, and connected to a Flexivent small animal ventilator to measure airway resistance (Raw) by the forced oscillation technique. To induce airway constriction, a solution containing 150 μg/mL of methacholine was infused using a syringe infusion pump. The methacholine infusion was started at 0.008 mL/min and its rate was doubled stepwise up to a maximum […]. […]
# [7] = asthmatic mice, acute: single intravenous bolus 15 minutes before methacholine
# [8] = asthmatic mice, chronic administration, 28 days (in chow; salbutamol by osmotic minipump)
SMILES,Decreased Raw (asthmatic mice [3]; 15 minutes of administration),Decreased Raw (asthmatic mice [3]; 2 days of administration),Decreased Raw (asthmatic mice [3]; 28 days of administration),"airway responsiveness to methacholine provocation (airway resistance, Raw) (asthmatic mice [3]; [7])","airway responsiveness to methacholine provocation (airway resistance, Raw) (asthmatic mice [3]; [8])",Increased β2AR density (β2-adrenergic receptor [5]; 15 minutes of administration),Increased β2AR density (β2-adrenergic receptor [5]; 2 days of administration),Increased β2AR density (β2-adrenergic receptor [5]; 28 days of administration),increase of the level of β2-adrenergic receptors over the non-treated mice (β2-adrenergic receptor [5]),Bmax (receptor density) (β2-adrenergic receptor [5]),βmax (receptor density) (β2-adrenergic receptor [5]),also measured
"CC(C)(C)NCC(O)COc1cccc2c1CC(O)C(O)C2 (centres unmarked) [Nadolol, nadolol]",no,yes,yes,enhanced the airway responsiveness,produced a decrease in airway responsiveness; also recorded: providing protection from airway hyperresponsiveness; also recorded: reduced the responsiveness,no,yes,yes,nearly eightfold increase,181.9 ± 48.28 femtomoles of sites per milligram of protein,785.5 ± 154.8 femtomoles of sites per milligram of protein,"labeling with anti-β2-adrenergic receptor antibodies in lungs (β2-adrenergic receptor [1]): considerably more intense; also recorded: increase in β-adrenergic receptor density; airway hyperresponsiveness (asthmatic mice [2]; administered acutely): worsens airway hyperresponsiveness; airway hyperresponsiveness (asthmatic mice [2]; administered chronically): prevents airway hyperresponsiveness; airway resistance (Raw) (asthmatic mice [3]; asthmatic mice, 1 ppm in chow): identical to the untreated mice; baseline airway resistance ([4]; pretreated 0.72 mg/kg i.p.): same baseline airway resistance; airway resistance upon methacholine challenge ([4]; pretreated 0.72 mg/kg i.p. 15 minutes prior to methacholine, methacholine infused to EC70): ~4.5 units; phospholipase C (ratio of PLC-β1 to actin) (Phospholipase C (PLC-β1)): significantly decreases the activity of phospholipase C; Increased β2AR density (β2-adrenergic receptor [5]; 2 days of administration, listed as nadolol): increase in receptor density; Increased β2AR density (β2-adrenergic receptor [5]; 28 days of administration, listed as nadolol): increase in receptor density"
"COc1ccccc1OCCNCC(O)COc1cccc2[nH]c3ccccc3c12 (centres unmarked) [Carvedilol, carvedilol]",no,no,yes,enhanced the airway responsiveness,does reduce airway hyperresponsiveness; also recorded: reduced the responsiveness of asthmatic mice to methacholine provocation; also recorded: providing protection from airway hyperresponsiveness,no,no,yes,over 10 fold,86.3 ± 19.42 femtomoles of sites per milligram of protein,904.1 ± 43.46 femtomoles of sites per milligram of protein,"clinical outcome (mortality, benefit over placebo) (patients with CHF): significant mortality reduction; shift of methacholine dose-airway response relationship (asthmatic mice [3]; asthmatic mice, chronic delivery, 28 days): shifts the sensitivity of the responsiveness to methacholine to lower concentrations; also recorded: shifted the methacholine dose-airway response relationship to the left; bronchoconstriction (airway resistance) (asthmatic mice [6]): higher bronchoconstriction than these treatments but less than the non-drug treated sensitized and challenged (NTX S/C) mice; Increased β2AR density (β2-adrenergic receptor [5]; 28 days of administration, listed as carvedilol): increase in receptor density"
